Like-named read-outs stand apart in the source and are kept apart here.
Experiments:
P2X7 [1] = biological target: T1, P2X7 (Homo sapiens, UniProt Q99572); assay: ATP-induced YO-PRO-1 dye uptake in HEK-hP2X7 cells; assay type: cell-based; conditions: for IC50: HEK-hP2X7, 10 min pre-treatment, read-out: IC50 value (95% CI); for Effect on P2X7 responses: purified glycosides/aglycone from potentiating extracts; for P2X7 response (% of control): compound 10 µM injected 60 s before ATP
T1 construct: expressed in transfected cells
T1 sequence (Q99572 1-595): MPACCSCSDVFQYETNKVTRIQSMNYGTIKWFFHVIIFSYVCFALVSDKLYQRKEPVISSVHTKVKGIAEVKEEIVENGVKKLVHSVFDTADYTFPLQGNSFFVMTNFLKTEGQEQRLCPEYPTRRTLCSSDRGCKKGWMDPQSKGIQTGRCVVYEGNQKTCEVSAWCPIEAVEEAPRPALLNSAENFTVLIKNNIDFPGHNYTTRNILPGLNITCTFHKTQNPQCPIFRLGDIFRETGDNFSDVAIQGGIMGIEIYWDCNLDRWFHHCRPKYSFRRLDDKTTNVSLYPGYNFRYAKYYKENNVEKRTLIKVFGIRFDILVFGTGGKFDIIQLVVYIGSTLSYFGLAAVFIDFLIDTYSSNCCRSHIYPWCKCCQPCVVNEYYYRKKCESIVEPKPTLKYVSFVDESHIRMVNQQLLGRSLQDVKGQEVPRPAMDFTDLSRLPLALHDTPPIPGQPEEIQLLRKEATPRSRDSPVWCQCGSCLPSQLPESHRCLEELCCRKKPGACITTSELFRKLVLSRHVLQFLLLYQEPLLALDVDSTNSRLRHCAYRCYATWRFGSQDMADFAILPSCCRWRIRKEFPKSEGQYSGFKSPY
Experimental: HEK-hP2X7 or HEK-hP2X4 cells were plated at 2.5 × 10^4 cells per well (100 µL volume) the day before experiments into poly-D-lysine (Merck Millipore) coated 96-well plates (NUNC, Fisher Scientific #167-008). The membrane impermeant dye YO-PRO-1 iodide (Life Technologies, Fisher Scientific) was used at a final concentration of 2 µM in low divalent buffer (145 mM NaCl, 5 mM KCl, 0.2 mM CaCl2, 13 mM glucose, 10 mM HEPES, pH 7.3, osm 300–310). Media were removed from the plate, and 90 µL of YO-PRO-1 buffer was added per well. Plates were warmed to 37 °C for 5 min before recording. Data was acquired on a Flexstation 3 plate reader (Molecular Devices) using excitation wavelength 490 nm, emission wavelength 520 nm, and six reads per well (PMT medium). […] […] Pipette height was set to 80 µL and the rate of injection was 4.
YO-PRO-1 dye uptake assay data is plotted as a percentage of control where control responses are measured in the absence of plant extract. Cell viability data is plotted as a percentage of control or background-corrected fluorescence data. Concentration–response graphs were plotted using GraphPad Prism v6 with a non-linear regression fit (variable slope). IC50 values were generated from collated datasets from a minimum of three independent experiments. Statistical differences were determined by one-way ANOVA statistical tests performed using GraphPad Prism v6 with Dunnett’s multiple comparison post hoc test. Significance was taken as P ≤ 0.05.
We acquired a natural product library (Set IV) containing 419 compounds from NCI DTP and tested these on P2X7 responses using a YO-PRO-1 dye uptake in HEK293 cells stably expressing human P2X7 (HEK-hP2X7). […] This allowed us to assess for any immediate effect of the injected compound, and secondly, it allowed for any potential negative modulators to be pre-incubated with P2X7.

P2X7 [2] = biological target: T1, P2X7; assay: fura-2 intracellular calcium assay in HEK-hP2X7 cells; assay type: cell-based; conditions: fura-2-loaded HEK-hP2X7, 10 min pre-treatment, 1 mM ATP
Experimental: Supplementary Figure 3: Validation of P2X7 antagonist activity using a fura-2 assay. HEK-hP2X7 cells were loaded with fura-2AM (2µM) to measure intracellular calcium responses to ATP. Cells were loaded for 45 minutes at 37 °C and then pre-treated with various concentrations of test compounds for 10 minutes. For full methodological details please see [1]. Responses to 1mM ATP were assessed over 300 seconds using a Flexstation 3 plate reader. Ratiometric fura-2 data was converted to area under curve.

hP2X7 [3] = biological target: T2, hP2X7 (Homo sapiens, UniProt Q99572); assay: Whole-cell patch-clamp electrophysiology in HEK-hP2X7 cells; assay type: cell-based; conditions: 10 µM with ATP 100 µM, 5-s application, −60 mV
T2 sequence (Q99572 1-595): T1 sequence (Q99572 1-595)
Experimental: Stably expressing HEK-hP2X7 cells were plated onto 13-mm glass coverslips 24 h prior to use. Membrane currents were recorded in the whole-cell patch-clamp configuration using an EPC10 amplifier (HEKA Elektronik) and borosilicate glass electrodes (TF-150 World Precision Instruments), resistance […] when filled with standard internal solution (145 mM NaCl, 10 mM HEPES, 10 mM EGTA, pH 7.3). Cells were voltage-clamped at − 60 mV, and dialysis of intracellular contents was performed for 1 min prior to experimental procedures. Cells were continuously perfused by gravity feed with standard divalent buffer solution (145 mM NaCl, 5 mM KCl, 2 mM CaCl2, 1 mM MgCl2, 13 mM glucose, 10 mM HEPES, pH 7.3) prior to seal formation, and low divalent buffer solution was used for agonist and PAM application. Agonists were applied using a computer-controlled fast-flow system (RSC-160; Bio-Logic Scientific Instruments) with the perfusion capillaries placed in close proximity to the cell under investigation.
Fig. 6 Dioscin enhances P2X7-dependent pore formation and potentiates channel opening. A Dioscorea nipponica (organic) plant extract (30 µg/mL) increased ATP-dependent YO-PRO-1 iodide uptake. AZ10606120 (10 µM, grey bars) was added to block hP2X7. B YO-PRO-1 uptake following a co-stimulation of HEK-hP2X7 cells with 200 µM ATP ± the named compounds in the presence or absence of AZ10606120. YO-PRO-1 uptake was quantified between 50 and 300 s (n = 5). C Whole-cell patch-clamp recordings were performed at room temperature. Cells were voltage-clamped at − 60 mV, and responses to a 5-s stimulation of ATP (100 µM) followed by a 5-s stimulation of ATP (100 µM) + dioscin/diosgenin (10 µM) were measured from HEK-hP2X7 cells. Representative traces are shown. D Summary of normalised current amplitudes represented as a fold change compared to ATP responses in the absence of dioscin/diosgenin (n = 10–18 cells). E Concentration response to ATP in the presence of dioscin (10 µM, green) or vehicle (DMSO, black) using YO-PRO-1 uptake assay in HEK-hP2X7 and F HEK-293 cells. […]

hP2X7 [4] = biological target: T2, hP2X7; conditions: cited from earlier work
[5] = screen for potential negative allosteric modulators

Compound: COc1ccc2cc3[n+](cc2c1OC)CCc1cc2c(cc1-3)OCO2 [Berberine]
- IC50 (P2X7 [1]; ATP 1 mM): 5.17 µM
- P2X7 antagonist activity on ATP-induced calcium responses (P2X7 [2]): demonstrated P2X7 antagonist activity

Compound: C[C@@H]1CC[C@@]2(OC1)O[C@H]1C[C@H]3[C@@H]4CC=C5C[C@@H](O)CC[C@]5(C)[C@H]4CC[C@]3(C)[C@H]1[C@@H]2C [Diosgenin, diosgenin]
- Effect on P2X7 responses (P2X7 [1]): could not potentiate responses
- Potentiation of hP2X7 ion channel opening (hP2X7 [3]): not capable of potentiating P2X7 channel opening

Compound: O=C(O[C@@H]1Cc2c(O)cc(O)cc2O[C@@H]1c1cc(O)c(O)c(O)c1)c1cc(O)c(O)c(O)c1 [EGCG, epigallocatechin gallate]
- P2X7 antagonist activity on ATP-induced calcium responses (P2X7 [2]): demonstrated P2X7 antagonist activity

Compound: Cc1cc(O)c2c(c1)C(=O)c1cc(O)cc(O)c1C2=O [Emodin]
- IC50 (P2X7 [1]; ATP 1 mM): 55.2 µM
- IC50 (hP2X7 [4]; electrophysiological recordings, read-out: IC50): 3 µM

Compound: CC1(C)C[C@]23[C@@H]4COC(=O)[C@H]2CC[C@H]1[C@@H]3CC4=O [Quadrone]
- P2X7 response (% of control) (P2X7 [1]; [5]): 40.82 % of control

Compound: CO[C@H]1[C@@H](O)[C@@H](C)O[C@@H](OC2CCC3(C)C(CCC4C3C(O)CC3(C)C(C5=CC(=O)OC5)CCC43O)C2)[C@@H]1O (some centres unmarked) [Sarnovid]
- P2X7 response (% of control) (P2X7 [1]; [5]): 38.95 % of control

Compound: COc1cc2ccc(=O)oc2cc1O [Scopoletin]
- Effect on YO-PRO-1 uptake at high concentrations (P2X7 [1]; > 30 µM, HEK-hP2X7): reduction of YO-PRO-1 uptake in hP2X7 cells at high concentrations
- IC50 (P2X7 [1]; ATP 1 mM): 39.9 µM

Compound: C=C(NC(=O)C(=C)NC(=O)c1csc(C2=N[C@@H]3c4csc(n4)[C@H]4NC(=O)c5csc(n5)[C@H]([C@](C)(O)[C@@H](C)O)NC(=O)[C@H]5CSC(=N5)/C(=C/C)NC(=O)[C@H]([C@@H](C)O)NC(=O)c5csc(n5)[C@]3(CC2)NC(=O)[C@H](C)NC(=O)C(=C)NC(=O)C(=C)NC(=O)[C@H](C(C)C)N[C@@H]2C=Cc3c([C@H](C)O)cc(nc3[C@H]2O)C(=O)O[C@@H]4C)n1)C(N)=O [Siomycin A]
- P2X7 response (% of control) (P2X7 [1]; screen for PAM activity): 157.10 % of control

Compound: COC1=C(N)C(=O)c2nc(-c3nc(C(=O)O)c(C)c(-c4ccc(OC)c(OC)c4O)c3N)ccc2C1=O [Streptonigrin]
- P2X7 response (% of control) (P2X7 [1]; screen for PAM activity): 139.02 % of control

Compound: COc1ccc2c(c1OC)CN1CCc3cc4c(cc3C1C2)OCO4 (centres unmarked) [Tetrahydroberberine]
- Effect on ATP-mediated YO-PRO-1 uptake (P2X7 [1]; 10 µM, 10 min pre-incubation, ATP 1 mM): able to reduce ATP-mediated YO-PRO-1 uptake
- P2X7 response (% of control) (P2X7 [1]; [5]): 26.9 % of control

Compound: CO[C@@H]1/C=C/O[C@@]2(C)Oc3c(C)c(O)c4c(c3C2=O)C(=N[C@@H]2CC[C@@H](O)O[C@H]2C)C=C(NC(=O)/C(C)=C\C(=O)[C@@H]2C[C@@H]2[C@H](O)[C@@H](C)[C@@H](O)[C@@H](C)[C@H](OC(C)=O)[C@@H]1C)C4=O [Tolypromycin Y]
- P2X7 response (% of control) (P2X7 [1]; [5]): 47.05 % of control

Compound: COc1cc(C=O)ccc1O [Vanilline]
- P2X7 response (% of control) (P2X7 [1]; screen for PAM activity): 158.27 % of control

Compound: COC(=O)/C(=C1/OC(=O)C(c2ccccc2)=C1O)c1ccccc1 [Vulpinic acid]
- P2X7 response (% of control) (P2X7 [1]; screen for PAM activity): 150.3 % of control

Compound: CC1=C(C)C(=O)O[C@@H]([C@](C)(O)[C@H]2CC[C@H]3[C@@H]4[C@@H]5O[C@@H]5[C@@]5(O)CC=CC(=O)[C@]5(C)[C@H]4CC[C@]23C)C1 [Withanolide A]
- P2X7 response (% of control) (P2X7 [1]; screen for PAM activity): 149.93 % of control

Compound: O=C(O)c1cc(O)c(O)c(O)c1 [gallic acid]
- IC50 (hP2X7 [4]; inhibition of hP2X7 currents by electrophysiology, read-out: IC50 value): 4.26 µM

Compound: COc1ccc2c(c1)CC=C(CO)c1cc3c(cc1-2)OCO3 [tenuifolin]
- Effect on P2X7 responses (P2X7 [1]): no effect on P2X7 responses

Compound: COc1cc([C@@H]2c3cc4c(c(O)c3C[C@H]3COC(=O)[C@@H]32)OCO4)cc(OC)c1OC [Β-peltatin]
- P2X7 response (% of control) (P2X7 [1]; [5]): 31.98 % of control

Compound: Erythromycin cyclopentylproprionate
- P2X7 response (% of control) (P2X7 [1]; screen for PAM activity): 126.67 % of control

Compound: Hexopyranuronic acid
- P2X7 response (% of control) (P2X7 [1]; screen for PAM activity): 147.11 % of control

Compound: Medicarpin
- P2X7 response (% of control) (P2X7 [1]; screen for PAM activity): 140.60 % of control

Compound: Monoacetyl verrucan A
- P2X7 response (% of control) (P2X7 [1]; screen for PAM activity): 170.65 % of control

Compound: Ossamycin
- P2X7 response (% of control) (P2X7 [1]; screen for PAM activity): 145.55 % of control

Compound: Predorine
- P2X7 response (% of control) (P2X7 [1]; screen for PAM activity): 740.31 % of control

Compound: Scopafungin
- Sensitivity of the potentiated ATP response to P2X7 antagonist AZ10606120 (P2X7 [1]; AZ10606120 10 µM): could be prevented by pre-treatment with the P2X7 selective antagonist, AZ10606120
- YO-PRO-1 uptake in the absence of ATP (P2X7 [1]; HEK-hP2X7): increase in YO-PRO-1 uptake in the absence of ATP
- Effect on ATP concentration–response curve (P2X7 [1]; compound 10 µM): increase the maximum response to ATP and increase the sensitivity to ATP
- P2X7 response (% of control) (P2X7 [1]; screen for PAM activity): 159.83 % of control
